According to patent publication US20070207112A1, “Anti-acne composition” (GRANT INDUSTRIES, INC., priority 2006, published 2007):
Residues, ends and D or L forms follow the SMILES beside them.

Legend:
P. acnes [1] = details: cited from earlier work
P. acnes [2] = assay type: cell-based; details: salicylate 0.08% to 5%
Text: In-Vitro testing for the synergetic inhibitory effects of Compound A and salicylic acid on the growth of P. acnes.
The objective of this experiment was to establish the minimal inhibitory concentration (MIC) of the peptide (Compound A) towards the bacterium P. acnes, in the presence of a range of concentrations of sodium salt of salicylic acid. MIC is defined as the lowest concentration of an active material resulting in lack of microbial growth. P. acnes (BD, cat. #237038, batch #6152097) was inoculated at 3 different dilutions and grown on blood agar plates for one week in anaerobic condition at 37 deg. C. Bacteria were then inoculated in thioglycollate broth in a 96 well plate, at the density equal to 0.5 McFarland standard in the presence of peptide (Compound A) concentrations ranging from 0.25 ug/ml to 32 ug/ml and salicylate concentrations ranging from 0.08% to 5% (checker method). MIC was determined visually and confirmed by spectrophotometry at 490 nm and 590 nm on the BioRad 3550-UV microplate reader.

SMILES | Antibacterial activity against P. acnes (P. acnes [1]; U.S. Pat. No. 4,520,133) | MIC against P. acnes (in words) (P. acnes [1]; in-vitro, reported in earlier filings) | Effect of added sodium salicylate on antimicrobial activity of the peptide (P. acnes [2])
O=C(O)c1ccccc1O [salicylic acid, reference compound] | does not posses any antibacterial activity against P. acnes | – | –
CC(C)C[C@H](NC(=O)[C@H](C)NC(=O)[C@H](CCCCN)NC(=O)[C@H](CC(C)C)NC(=O)[C@H](C)NC(=O)[C@H](CCCCN)NC(=O)[C@H](CC(C)C)NC(=O)[C@H](CC(C)C)NC(=O)[C@H](C)NC(=O)[C@H](CCCCN)NC(=O)[C@H](CC(C)C)NC(=O)[C@H](C)NC(=O)[C@H](CCCCN)NC(=O)[C@H](C)NC(=O)[C@@H](N)Cc1ccccc1)C(N)=O [Compound A, FAKALKALLKALKAL-NH2] (H-FAKALKALLKALKAL-NH2; N-terminus assumed) | – | low in-vitro minimum inhibitory concentration (MIC) against P. acnes | strongly enhance its antimicrobial activity
